Laboratory results taken from BindingDB's records for doi:10.1016/j.bmc.2021.116093 (Wayne State University School of Medicine, 2021).

How the values were obtained:
[1] = Inhibition of human RFC expressed in Chinese Hamster MTXRII-OuaR2-4 R2 cells assessed as reduction in cell proliferation after 96 hrs by CellTiter-blue assay
[2] = Inhibition of human PCFT expressed in Chinese Hamster MTXRII-OuaR2-4 R2 cells assessed as reduction in cell proliferation after 96 hrs by CellTiter-blue assay
[3] = Inhibition of human FRbeta expressed in Chinese Hamster MTXRII-OuaR2-4 R2 cells assessed as reduction in cell proliferation after 96 hrs by CellTiter-blue assay
[4] = Inhibition of human FRalpha expressed in Chinese Hamster MTXRII-OuaR2-4 R2 cells assessed as reduction in cell proliferation after 96 hrs by CellTiter-blue assay

IC50 [2] | SMILES | IC50 [1] | IC50 [3] | IC50 [4]
460 nM | Nc1nc2sc(CCCCc3csc(C(=O)N[C@@H](CCC(=O)O)C(=O)O)c3)cc2c(=O)[nH]1 | > 1000 nM | 5.6 nM | 5.6 nM
107 nM | Nc1nc2sc(CCCc3csc(C(=O)N[C@@H](CCC(=O)O)C(=O)O)c3)cc2c(=O)[nH]1 | > 1000 nM | 0.24 nM | 0.44 nM

The remaining lines, values behind:

SMILES | IC50 [2] | IC50 [1] | IC50 [3] | IC50 [4]
Nc1nc2sc(CCCCc3cc(C(=O)N[C@@H](CCC(=O)O)C(=O)O)cs3)cc2c(=O)[nH]1 | > 1000 nM | > 1000 nM | 1.2 nM | 0.91 nM
Nc1nc2sc(CCCCc3ccc(C(=O)N[C@@H](CCC(=O)O)C(=O)O)s3)cc2c(=O)[nH]1 | > 1000 nM | > 1000 nM | 1.7 nM | 2.6 nM
Nc1nc2sc(CCCCc3ccc(C(=O)N[C@@H](CCC(=O)O)C(=O)O)o3)cc2c(=O)[nH]1 | > 1000 nM | > 1000 nM | 2.6 nM | 11 nM
Nc1nc2sc(CCCc3ccc(C(=O)N[C@@H](CCC(=O)O)C(=O)O)s3)cc2c(=O)[nH]1 | > 1000 nM | > 1000 nM | 1.8 nM | 0.34 nM
Nc1nc2sc(CCCc3cc(C(=O)N[C@@H](CCC(=O)O)C(=O)O)cs3)cc2c(=O)[nH]1 | 80 nM | > 1000 nM | 0.72 nM | 1.1 nM
Nc1nc2sc(CCCCc3ccc(C(=O)N[C@@H](CCC(=O)O)C(=O)O)cc3)cc2c(=O)[nH]1 [(S)-2-(4-(4-(2-amino-4-oxo-3,4-dihydrothieno[2,3-d]pyrimidin-6-yl)butyl)benzamido)pentanedioic acid] |  | > 1000 nM | 20 nM | 9 nM
